Legend:
Assay type in all cases: functional
UACC-257 [1] = assay: Cytotoxicity against human UACC257 cells assessed as cellular growth at 0.01 uM after 48 hrs by SRB assay relative to control
Malme-3M = assay: Cytotoxicity against human MALME-3M cells assessed as cellular growth at 0.01 uM after 48 hrs by SRB assay relative to control
KM12 = assay: Cytotoxicity against human KM12 cells assessed as cellular growth at 0.01 uM after 48 hrs by SRB assay relative to control
RXF 393 = assay: Cytotoxicity against human RXF393 cells assessed as cellular growth at 100 uM after 48 hrs by SRB assay relative to control
ACHN = assay: Cytotoxicity against human ACHN cells assessed as cellular growth at 100 uM after 48 hrs by SRB assay relative to control
786-0 = assay: Cytotoxicity against human 786-0 cells assessed as cellular growth at 100 uM after 48 hrs by SRB assay relative to control
SK-OV-3 [2] = assay: Cytotoxicity against human SKOV3 cells assessed as cellular growth at 100 uM after 48 hrs by SRB assay relative to control
SNB-75 [3] = assay: Cytotoxicity against human SNB75 cells assessed as cellular growth at 100 uM after 48 hrs by SRB assay relative to control
HOP-62 [4] = assay: Cytotoxicity against human HOP62 cells assessed as cellular growth at 100 uM after 48 hrs by SRB assay relative to control
SR = assay: Cytotoxicity against human SR cells assessed as cellular growth at 100 uM after 48 hrs by SRB assay relative to control
K562 [5] = assay: Cytotoxicity against human K562 cells assessed as cellular growth at 100 uM after 48 hrs by SRB assay relative to control
Hs-578T = assay: Cytotoxicity against human Hs578T cells assessed as cellular growth at 100 uM after 48 hrs by SRB assay relative to control
MCF7 = assay: Cytotoxicity against human MCF7 cells assessed as cellular growth at 1 uM after 48 hrs by SRB assay relative to control
TK-10 = assay: Cytotoxicity against human TK10 cells assessed as cellular growth at 1 uM after 48 hrs by SRB assay relative to control
SN12C = assay: Cytotoxicity against human SN12C cells assessed as cellular growth at 1 uM after 48 hrs by SRB assay relative to control
HCT-116 = assay: Cytotoxicity against human HCT116 cells assessed as cellular growth at 1 uM after 48 hrs by SRB assay relative to control
UO-31 [6] = assay: Cytotoxicity against human UO31 cells after 48 hrs by SRB assay; conditions: UO-31, 48 h
A498 = assay: Cytotoxicity against human A498 cells after 48 hrs by SRB assay; conditions: A498, 48 h
UACC-257 [7] = assay: Cytotoxicity against human UACC257 cells after 48 hrs by SRB assay; conditions: UACC-257, 48 h
SNB-19 = assay: Cytotoxicity against human SNB19 cells after 48 hrs by SRB assay; conditions: SNB-19, 48 h
SNB-75 [8] = assay: Cytotoxicity against human SNB75 cells after 48 hrs by SRB assay; conditions: SNB-75, 48 h
SW-620 = assay: Cytotoxicity against human SW620 cells after 48 hrs by SRB assay; conditions: SW-620, 48 h
NCI-H522 = assay: Cytotoxicity against human NCI-H522 cells after 48 hrs by SRB assay; conditions: NCI-H522, 48 h
HOP-62 [9] = assay: Cytotoxicity against human HOP62 cells after 48 hrs by SRB assay; conditions: HOP-62, 48 h
K562 [10] = assay: Cytotoxicity against human K562 cells after 48 hrs by SRB assay; conditions: K562, 48 h
HL-60(TB) = assay: Cytotoxicity against human HL-60(TB) cells after 48 hrs by SRB assay; conditions: HL-60, 48 h
UO-31 [11] = assay: Cytotoxicity against human UO31 cells assessed as cellular growth at 0.1 uM after 48 hrs by SRB assay relative to control
SK-OV-3 [12] = assay: Cytotoxicity against human SKOV3 cells assessed as cellular growth at 0.1 uM after 48 hrs by SRB assay relative to control
OVCAR-8 = assay: Cytotoxicity against human OVCAR8 cells assessed as cellular growth at 0.1 uM after 48 hrs by SRB assay relative to control
UACC-62 = assay: Cytotoxicity against human UACC62 cells assessed as cellular growth at 0.1 uM after 48 hrs by SRB assay relative to control
UACC-257 [13] = assay: Cytotoxicity against human UACC257 cells assessed as cellular growth at 0.1 uM after 48 hrs by SRB assay relative to control
U-251 = assay: Cytotoxicity against human U251 cells assessed as cellular growth at 0.1 uM after 48 hrs by SRB assay relative to control
MDA-MB-468 = assay: Cytotoxicity against human MDA-MB-468 cells assessed as cellular growth at 0.01 uM after 48 hrs by SRB assay relative to control
[14] = read-out: LC50 (the source's name)
[15] = read-out: pLC50 (the source's name) (converted)

Molecule O=C(CCCn1c2c(sc3ccccc32)c(=O)n2nnc(-c3ccccc3)c12)NCCc1c[nH]cn1 has an Activity (UACC-257 [1]) of 108%, an Activity (Malme-3M) of 100% and an Activity (KM12) of 106%. It also gave an Activity (RXF 393) of -61%, an Activity (ACHN) of -100% and an Activity (786-0) of -68%. For the same molecule, the Activity (SK-OV-3 [2]) was -100%, the Activity (SNB-75 [3]) was -96% and the Activity (HOP-62 [4]) was -66%. The Activity (SR) was -100%, the Activity (K562 [5]) was -100% and the Activity (Hs-578T) was -49%. The Activity (MCF7) was 58%, the Activity (TK-10) was 121% and the Activity (SN12C) was 36%. The Activity (HCT-116) was -27%, the GI50 (UO-31 [6]; read-out: GI50) was 1.3 µM and the CC50 (UO-31 [6]; [14]) was 5.22 µM. For the same molecule, the TGI (UO-31 [6]; read-out: TGI) was 2.61 µM, the GI50 (UO-31 [6]; read-out: pGI50 (converted)) was 1.29 µM and the CC50 (UO-31 [6]; [15]) was 5.25 µM. It also gave a TGI (UO-31 [6]; read-out: pTGI (converted)) of 2.63 µM, a GI50 (A498; read-out: GI50) of 1.09 µM and a CC50 (A498; [14]) of 5.61 µM. For the same molecule, the TGI (A498; read-out: TGI) was 2.47 µM, the GI50 (A498; read-out: pGI50 (converted)) was 1.1 µM and the CC50 (A498; [15]) was 5.62 µM. It also gave a TGI (A498; read-out: pTGI (converted)) of 2.45 µM, a GI50 (UACC-257 [7]; read-out: GI50) of 2.14 µM and a CC50 (UACC-257 [7]; [14]) of 7.83 µM. It also gave a TGI (UACC-257 [7]; read-out: TGI) of 4.09 µM, a GI50 (UACC-257 [7]; read-out: pGI50 (converted)) of 2.14 µM and a CC50 (UACC-257 [7]; [15]) of 7.76 µM. It also gave a TGI (UACC-257 [7]; read-out: pTGI (converted)) of 4.07 µM, a GI50 (SNB-19; read-out: GI50) of 5.12 µM and a CC50 (SNB-19; [14]) of 54.3 µM. For the same molecule, the TGI (SNB-19; read-out: TGI) was 22.1 µM, the GI50 (SNB-19; read-out: pGI50 (converted)) was 5.13 µM and the CC50 (SNB-19; [15]) was 53.7 µM. The TGI (SNB-19; read-out: pTGI (converted)) was 21.9 µM, the GI50 (SNB-75 [8]; read-out: GI50) was 1.95 µM and the CC50 (SNB-75 [8]; [14]) was 6.32 µM. For the same molecule, the TGI (SNB-75 [8]; read-out: TGI) was 3.51 µM, the GI50 (SNB-75 [8]; read-out: pGI50 (converted)) was 1.95 µM and the CC50 (SNB-75 [8]; [15]) was 6.31 µM. It also gave a TGI (SNB-75 [8]; read-out: pTGI (converted)) of 3.55 µM, a GI50 (SW-620; read-out: GI50) of 0.024 µM and a CC50 (SW-620; [14]) of 4.16 µM. The TGI (SW-620; read-out: TGI) was 1.01 µM, the GI50 (SW-620; read-out: pGI50 (converted)) was 0.024 µM and the CC50 (SW-620; [15]) was 4.17 µM. It also gave a TGI (SW-620; read-out: pTGI (converted)) of 1 µM, a GI50 (NCI-H522; read-out: GI50) of 0.0435 µM and a CC50 (NCI-H522; [14]) of over 100 µM. The TGI (NCI-H522; read-out: TGI) was 3.11 µM, the GI50 (NCI-H522; read-out: pGI50 (converted)) was 0.0437 µM and the TGI (NCI-H522; read-out: pTGI (converted)) was 3.09 µM. It also gave a GI50 (HOP-62 [9]; read-out: GI50) of 1.31 µM, a CC50 (HOP-62 [9]; [14]) of 6.32 µM and a TGI (HOP-62 [9]; read-out: TGI) of 2.87 µM. It also gave a GI50 (HOP-62 [9]; read-out: pGI50 (converted)) of 1.32 µM, a CC50 (HOP-62 [9]; [15]) of 6.31 µM and a TGI (HOP-62 [9]; read-out: pTGI (converted)) of 2.88 µM. For the same molecule, the GI50 (K562 [10]; read-out: GI50) was 0.0227 µM, the CC50 (K562 [10]; [14]) was 5.18 µM and the TGI (K562 [10]; read-out: TGI) was 1.02 µM. It also gave a GI50 (K562 [10]; read-out: pGI50 (converted)) of 0.0229 µM, a CC50 (K562 [10]; [15]) of 5.13 µM and a TGI (K562 [10]; read-out: pTGI (converted)) of 1.02 µM. For the same molecule, the GI50 (HL-60(TB); read-out: GI50) was 0.0724 µM, the CC50 (HL-60(TB); [14]) was 22.7 µM and the TGI (HL-60(TB); read-out: TGI) was 3.21 µM. It also gave a GI50 (HL-60(TB); read-out: pGI50 (converted)) of 0.0724 µM, a CC50 (HL-60(TB); [15]) of 22.9 µM and a TGI (HL-60(TB); read-out: pTGI (converted)) of 3.24 µM. For the same molecule, the Activity (UO-31 [11]) was 106%, the Activity (SK-OV-3 [12]) was 99% and the Activity (OVCAR-8) was 33%. It also gave an Activity (UACC-62) of 96%, an Activity (UACC-257 [13]) of 108% and an Activity (U-251) of 54%. The Activity (MDA-MB-468) was 102%.
